Results on 4 compounds are retold here after US9399028B2, “Treatment of drug resistant cancer” (ROCKEFELLER UNIVERSITY (THE), priority 2012, dated 2016).

“Also recorded” adds a separate entry of the source. Structures can show the parent of a compound that is named as a salt.

Assay [1] deals with human melanoma cells (MeWo, MeWo-LM2, HT-144, SK-Mel-2, SK-Mel-334.2). The experiment in a line: Trans-well matrigel cell invasion assay, melanoma cells. Format: cell-based. On the procedure: Cancer cells were serum-starved in 0.2% FBS DMEM-based media for 12 hours. Trans-well invasion chambers (354480, BD Biosciences, Bedford, Mass.) were pre-equilibrated prior to beginning the assay by adding 0.5 mL of starvation media to the top and bottom chambers. After 30 minutes, the media in the top chamber was removed, and 0.5 mL of media containing 1×10^5 cancer cells was added into each matrigel-coated trans-well insert and incubated at 37° C. for 24 hours. For neutralization antibody and/or recombinant protein experiments, antibody/recombinant protein was added to each well at the start of the assay at the following concentrations as indicated in the figures: 5-40 μg/mL anti-ApoE 1D7 (Heart Institute, University of Ottawa), 5-40 μg/mL anti-IgG (AB-108-C, R&D Systems, Minneapolis, Minn.), 100 μM recombinant human ApoE3 (4696, BioVision, Mountain View, Calif.), and 100 μM BSA (A2153, Sigma-Aldrich). Upon completion of the assay, matrigel-coated inserts were washed with PBS, the cells at the top side of each insert were scraped off, and the inserts were fixed in 4% paraformaldehyde for 15 minutes. The inserts were then cut out and mounted onto slides using VectaShield mounting medium containing DAPI (H-1000, Vector Laboratories, Burlingame, Calif.). The basal side of each insert was imaged using an inverted fluorescence microscope (Zeiss Axiovert 40 CFL) at 5× magnification, taking three representative images for each insert. The number of invaded cells was quantified using ImageJ (NIH).
The cell invasion assay was performed as previously described in detail (Pencheva et al., 2012) using a trans-well matrigel invasion chamber system (354480, BD Biosciences). In brief, various melanoma cells were cultured in the presence of DMSO, GW3965, T0901317, or Bexarotene at 1 μM for 56 hours, after which melanoma cells were switched to starvation media (0.2% FBS) for 16 hours in the presence of each drug. Following starvation, cells were seeded into matrigel-coated trans-well inserts, and the invasion assay was allowed to proceed for 24 hours at 37° C. For ApoE antibody neutralization experiments, 40 μg/mL 1D7 anti-ApoE blocking antibody (Heart Institute, University of Ottawa, Ottawa, Canada) or 40p, g/mL anti-IgG control antibody (AB-108-C, R&D Systems, Minneapolis, Minn.) was added to each trans-well insert at the start of the assay.
The cells were then serum starved for 16 hours in 0.2% FBS media in the presence of each corresponding drug or DMSO. […] Meanwhile, cancer cells were trypsinized and viable cells were counted using trypan blue. […] The basal side of each insert was imaged using an inverted fluorescence microscope (Zeiss Axiovert 40 CFL) at 5× magnification, and the number of DAPI-positive cells was quantified using ImageJ.

Assay [2] has as its system ApoE. The experiment in a line: Gene expression analysis by qRT-PCR in melanoma cells. Format: cell-based, human. The settings on record: 48 hours; for ApoE transcript expression: MeWo, HT-144, WM-266-4 human melanoma lines. On the procedure:
Total RNA was extracted from various cell lines using the miRvana kit (AM1560, Applied Biosystems, Austin, Tex.). The expression levels of mature miRNAs were quantified using the Taqman miRNA expression assay (4427975-0002228, Applied Biosystems). RNU44 was used as an endogenous control for normalization. For mRNA expression analyses, 600 ng of total RNA was reverse transcribed using the cDNA First-Strand Synthesis Kit (18080-051, Invitrogen), and roughly 200 ng of the resulting cDNA was then mixed with SYBR green PCR Master Mix (4309155, Applied Biosystems) and the appropriate primers. Each reaction was performed in quadruplicate, and mRNA expression was quantified by performing real-time PCR amplification using an ABI Prism 7900HT Real-Time PCR System (Applied Biosystems). GAPDH was used as an endogenous control for normalization. The following primers were used: […]
RNA was extracted from whole cell lysates using the Total RNA Purification Kit (I 7200, Norgen, Thorold, Canada). 600 ng of total RNA was then reverse transcribed into cDNA using the cDNA First-Strand Synthesis Kit (18080-051, Invitrogen), and quantitative real-time PCR amplification was performed as previously described (Pencheva et al., 2012) using an ABI Prism 7900HT Real-Time PCR System (Applied Biosystems, Austin, Tex.). Each PCR reaction was carried out in quadruplicates. Gene expression was normalized to GAPDH, which was used as an endogenous control.
For every sample, 600 ng of RNA was reverse transcribed into cDNA using the cDNA First-Strand Synthesis kit (Invitrogen). Approximately 200 ng of cDNA was mixed with SYBR® green PCR Master Mix and the corresponding forward and reverse primers specific for detection of human ApoE. Each reaction was carried out in quadruplicates, and ApoE mRNA expression levels were measured by quantitative real-time PCR amplification using an ABI Prism 7900HT Real-Time PCR System (Applied Biosystems). The relative ApoE expression was determined using the ΔΔCt method. GAPDH was used as an endogenous control for normalization purposes.
For orientation: Quantitative PCR measures a nucleic acid by following its amplification.

The subject of assay [3] is human melanoma cells and endothelial cells. Kind of assay: In vitro cell proliferation, viability and serum starvation survival. The assay is classed as cell-based. The settings on record: for cell proliferation or cell viability rates: MeWo, HT-144, SK-Mel-334.2 cells, 1 μM, 5 days. On the procedure:
To determine the effects of miR-199a or miR-1908 over-expression and combinatorial LNA-induced miRNA inhibition on cell proliferation, 2.5×10^4 cells were seeded in triplicate in 6-well plates, and viable cells were counted after 5 days. […] Viable cells were counted after 8, 24, 48, 72, and 120 hours.
The number of viable cells was counter after 8, 16, and 24 hours.
To determine the effects of GW3965, T0901317, and Bexarotene on in vitro cell growth, 2.5×10^4 melanoma cells were seeded in triplicate in 6-well plates and cultured in the presence of DMSO, GW3965, T0901317, or Bexarotene at 1 μM each. After 5 days, the number of viable and dead cells was counted using the trypan blue dye (72-57-1, Sigma-Aldrich), which selectively labels dead cells.

[4] abbreviates: MeWo-LM2 or endothelial cells, ApoE 100 μM.

With `O=C(O)Cc1cccc(OCCCN(Cc2cccc(C(F)(F)F)c2Cl)CC(c2ccccc2)c2ccccc2)c1` [GW3965 2, 3-[3-[N-(2-Chloro-3-trifluoromethylbenzyl)-(2,2-diphenylethyl)amino]propyloxy]phenylacetic acid hydrochloride], the tumor cell invasion entry in assay [1] (parental MeWo cells pre-treated 48 hours) is listed as “decreased”. In addition, the ApoE transcript expression result in assay [2] is on record as “potently induce”. Moreover, in assay [2] (parental MeWo cells), the “expression of ApoE” value is listed as “increased” and the “expression of DNAJA4” value is “increased”. Also, the “cell proliferation or cell viability rates” value in assay [3] is listed as “did not affect”.

Consider `O=S(=O)(c1ccccc1)N(CC(F)(F)F)c1ccc(C(O)(C(F)(F)F)C(F)(F)F)cc1` [T0901317 1], for which, in assay [2], the ApoE transcript expression entry is “potently induce”. For the same compound, the “cell proliferation or cell viability rates” value in assay [3] is recorded as “did not affect”.

For the compound `CC(CCOc1cccc(CC(=O)O)c1)N(Cc1cccc(C(F)(F)F)c1Cl)CC(c1ccccc1)c1ccccc1` (stereo not drawn) [SB742881 25], the “inhibition of cancer progression phenotypes (cell invasion, endothelial recruitment)” value in assay [1] (MeWo cells, 1 μM for 72 hours, compared with lower potency LXR agonists) is given as “more effective”. In addition, the ApoE expression induction result in assay [2] (MeWo cells, 500 nM, 1 μM or 2 μM) is reported as “varied degrees of ApoE expression induction; also recorded: potently induce”.

Take “recombinant human ApoE3: recombinant human ApoE3 (4696, BioVision)”: in assay [1] (recombinant ApoE3 100 μM in cell media), the “invasion by metastatic LM2 cells” value is reported as “significantly suppressed”. Moreover, in assay [3] (setting [4]), the “melanoma cell or endothelial cell in vitro proliferation” value is reported as “did not affect” and the “survival in serum starvation conditions” value is reported as “did not affect”.
